Calls of active or inactive are those of the source.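 Rule for the calls: active = activation curve crossing 200% at or below the highest valid dose tested for that sample; inconclusive = flat curve with activation between 30 and 70%, or poor fit; inactive = the rest, including signal falling instead of rising.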
Biological target: Leucyl-cystinyl aminopeptidase (Mus musculus) (UniProt Q8C129)
Test: IRAP activators, dose response, selectivity assay for ERAP1 modulator project, biochemical, Leu-AMC fluorescence, cherry-picked samples (AID 743339)
Details: purified IRAP, Leu-AMC cleavage fluorescence, 1 h

Leucyl-cystinyl aminopeptidase (Mus musculus), sequence (Q8C129 whole entry, looked up): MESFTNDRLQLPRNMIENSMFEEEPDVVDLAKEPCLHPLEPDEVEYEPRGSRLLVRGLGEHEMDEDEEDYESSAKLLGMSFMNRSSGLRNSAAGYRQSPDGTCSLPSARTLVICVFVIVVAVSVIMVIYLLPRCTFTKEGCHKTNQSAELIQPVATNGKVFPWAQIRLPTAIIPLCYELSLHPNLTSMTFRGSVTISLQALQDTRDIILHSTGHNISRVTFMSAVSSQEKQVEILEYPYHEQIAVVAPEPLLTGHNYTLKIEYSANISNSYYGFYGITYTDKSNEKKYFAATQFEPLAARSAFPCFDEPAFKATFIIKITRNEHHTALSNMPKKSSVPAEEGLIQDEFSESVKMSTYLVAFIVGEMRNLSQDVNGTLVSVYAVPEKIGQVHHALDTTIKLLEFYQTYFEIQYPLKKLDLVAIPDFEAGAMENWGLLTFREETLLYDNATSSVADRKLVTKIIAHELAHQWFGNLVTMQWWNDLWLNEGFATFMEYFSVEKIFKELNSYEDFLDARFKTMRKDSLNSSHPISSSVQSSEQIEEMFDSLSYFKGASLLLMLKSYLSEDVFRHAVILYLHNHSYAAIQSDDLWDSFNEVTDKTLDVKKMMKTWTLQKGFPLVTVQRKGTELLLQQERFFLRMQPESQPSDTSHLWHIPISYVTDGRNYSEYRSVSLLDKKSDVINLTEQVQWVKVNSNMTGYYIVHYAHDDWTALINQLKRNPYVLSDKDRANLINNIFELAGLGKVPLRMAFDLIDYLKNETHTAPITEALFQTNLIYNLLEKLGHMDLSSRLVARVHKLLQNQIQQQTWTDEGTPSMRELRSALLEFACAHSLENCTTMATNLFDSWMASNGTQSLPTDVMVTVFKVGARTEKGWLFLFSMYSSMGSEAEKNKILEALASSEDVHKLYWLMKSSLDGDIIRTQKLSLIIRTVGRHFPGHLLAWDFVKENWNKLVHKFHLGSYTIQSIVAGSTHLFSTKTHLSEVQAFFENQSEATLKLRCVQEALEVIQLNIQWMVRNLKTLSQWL

| SMILES | activation (at 11 µM (top of the series)) | AC200 [nM] | other results |
| --- | --- | --- | --- |
| COc1ccc(CN(C)C[C@@H]2OCCCC[C@H](C)Oc3ccc(NS(=O)(=O)c4cccs4)cc3C(=O)N([C@@H](C)CO)C[C@@H]2C)cc1 | 10.9% (inactive) | – | – |
| C[C@@H]1CCCCO[C@@H](CN(C)Cc2ccc3c(c2)OCO3)[C@@H](C)CN([C@@H](C)CO)C(=O)c2cc(NS(=O)(=O)c3ccccc3)ccc2O1 | – | – | activation (at 5.6 µM (top of the series)): 7.88% (inactive) |
| O=c1cc(CN2CCOCC2)c2cc(Cl)c(O)cc2o1 | – | 1100 | – |
| C[C@@H]1CN([C@H](C)CO)C(=O)c2cccc(NC(=O)Nc3ccccc3)c2O[C@@H]1CN(C)Cc1ccc(C(=O)O)cc1 | 17.7% (inactive) | – | – |
| C[C@H]1CN([C@@H](C)CO)C(=O)c2cccc(NC(=O)Nc3ccc(C(F)(F)F)cc3)c2O[C@@H]1CN(C)C | -7.32% (inactive) | – | – |
| CN(C)Cc1c(O)ccc2cc(-c3nc4ccccc4n3C)c(=O)oc12 | – | 202 | – |
| C[C@@H]1CCCCO[C@@H](CN(C)Cc2ccc(C(=O)O)cc2)[C@@H](C)CN([C@H](C)CO)C(=O)c2cc(NC(=O)Nc3cccc4ccccc34)ccc2O1 | -5.32% (inactive) | – | – |
| CCCNC(=O)C[C@@H]1CC[C@@H]2[C@H](COC[C@H](O)CN2C(=O)Nc2cccc(Cl)c2)O1 | 30.1% (inactive) | – | – |
| COc1ccc(-c2cc3ccc(O)cc3oc2=O)cc1OC | – | 983 | – |
| C[C@@H]1CCCCO[C@@H](CN(C)S(C)(=O)=O)[C@@H](C)CN([C@@H](C)CO)C(=O)c2cc(NS(=O)(=O)c3ccc(Cl)cc3)ccc2O1 | -13.3% (inactive) | – | – |
| COc1ccc(CN(C)C[C@H]2OCCCC[C@@H](C)Oc3ccc(NS(=O)(=O)c4cccs4)cc3C(=O)N([C@@H](C)CO)C[C@H]2C)cc1 | 2.6% (inactive) | – | – |
| O=C(O)c1ccccc1NS(=O)(=O)c1cccc(-n2sc3ccccc3c2=O)c1 | -25.6% (inactive) | – | – |
| COc1ccc(CN(C)C[C@H]2OCCCC[C@@H](C)Oc3ccc(NS(=O)(=O)c4cccs4)cc3C(=O)N([C@@H](C)CO)C[C@@H]2C)cc1 | 24.3% (inactive) | – | – |
| Cc1cc(=O)oc2c(CN3CCN(CCO)CC3)c(O)ccc12 | – | 1450 | – |
| C[C@@H]1CCCCO[C@H](CN(C)Cc2ccccc2)[C@H](C)CN([C@H](C)CO)C(=O)c2cc(NS(=O)(=O)c3ccccc3)ccc2O1 | -9.37% (inactive) | – | – |
| O=c1ccc2cc(O[C@@H]3O[C@@H](CO)[C@H](O)[C@@H](O)[C@@H]3O)c(O)cc2o1 | – | 363 | – |
| COc1ccc2c3c([nH]c2c1)[C@H](CO)N(Cc1cc(F)ccc1F)CC31CN(C)C1 | 1.85% (inactive) | – | – |
| COc1ccc(NC(=O)Nc2cccc3c2O[C@H](CN(C)Cc2ccc(C(=O)O)cc2)[C@H](C)CN([C@H](C)CO)C3=O)cc1 | 8.21% (inactive) | – | – |
| O=S(=O)(O)c1ccc(N2N=C(c3ccccc3)CC2c2ccccc2)cc1 (centres undefined) | – | 1010 | – |
| COc1ccc(-c2cc3ccc(O)cc3oc2=O)cc1 | – | 398 | – |
| Cc1cc(=O)oc2c(CN3CCN(C)CC3)c(O)c(Cl)cc12 | – | 634 | – |
| COc1ccc(CN(C)C[C@@H]2OCCCC[C@@H](C)Oc3ccc(NS(=O)(=O)c4cccs4)cc3C(=O)N([C@H](C)CO)C[C@@H]2C)cc1 | 3.66% (inactive) | – | – |
| CCC(=O)N(C)C[C@H]1Oc2ncc(C#Cc3ccncc3)cc2C(=O)N([C@H](C)CO)C[C@H]1C | 4.22% (inactive) | – | – |
| COc1ccc(NC(=O)Nc2ccc3c(c2)C(=O)N([C@H](C)CO)C[C@@H](C)[C@H](CN(C)Cc2ccc(C(=O)O)cc2)OCCCC[C@@H](C)O3)cc1 | 10% (inactive) | – | – |
